Assay results taken from the Deep4Chem optical property database.

Experiment: solvent given as SMILES
[1] = in CC(C)(C)c1ccc(-n2c3ccc([Si](c4ccccc4)(c4ccccc4)c4ccccc4)cc3c3cc([Si](c4ccccc4)(c4ccccc4)c4ccccc4)ccc32)cc1

## Cc1ccc(C2=C3C=C(I)C=[N+]3[B-](F)(F)n3c2cc(I)c3I)cc1
In C1CCCCC1
  fluorescence lifetime: 0.327 ns
In CC#N
  fluorescence lifetime: 0.142 ns
In CCO
  fluorescence lifetime: 0.196 ns
In CCOC(C)=O
  fluorescence lifetime: 0.207 ns
In CO
  fluorescence lifetime: 0.179 ns
In OCC(F)(F)F
  fluorescence lifetime: 0.185 ns

## CCCCCCCCOc1cc(/C=C/c2cc(OCCCCCCCC)c(/C=C/c3cc(OCCCCCCCC)c(/C=C/c4ccncc4)cc3OCCCCCCCC)cc2OCCCCCCCC)c(OCCCCCCCC)cc1/C=C/c1ccncc1
In ClCCl
  fluorescence lifetime: 1.27 ns

## Cn1c2ccccc2c(=O)c2ccccc21
In CS(C)=O
  fluorescence lifetime: 8.85 ns

## CC1(C)C(/C=C/C2=C(Oc3ccc(CCN=C=S)cc3F)C(=C/C=C3/N(CCCS(=O)(=O)[O-])c4ccccc4C3(C)C)/CCC2)=[N+](CCCS(=O)(=O)[O-])c2ccccc21
In CO
  fluorescence lifetime: 0.843 ns

## Cc1ccc(O)c(-c2nc(C)c3n2CCCC3)c1
In ClCCl
  fluorescence lifetime: 2.3 ns

## c1ccc2c(c1)OP1(=NP3(=NP(Oc4ccc5ccc6cccc7ccc4c5c67)(Oc4ccc5ccc6cccc7ccc4c5c67)=N1)Oc1ccccc1-c1ccccc1O3)Oc1ccccc1-2
In ClCCl
  fluorescence lifetime: 1.23 ns

## C(=C\c1ccccc1)/c1ccccc1
In CC#N
  fluorescence lifetime: 0.07 ns

## COc1cc(-c2cc(-c3ccc(C)cc3)nc3c(C#N)c(N4CCCC4)nc(N)c23)cc(OC)c1OC
In CC#N
  fluorescence lifetime: 10.7 ns
In CC(C)=O
  fluorescence lifetime: 10.4 ns
In CC(C)O
  fluorescence lifetime: 10.3 ns
In CO
  fluorescence lifetime: 8.46 ns
In ClC(Cl)Cl
  fluorescence lifetime: 12.8 ns
In ClCCl
  fluorescence lifetime: 12.6 ns
In c1ccccc1
  fluorescence lifetime: 12.5 ns

## COC(=O)c1noc(-c2ccccc2)c1Br
In C1CCCCC1
  fluorescence lifetime: 0.49 ns

## CCCCc1cc2cccc3cc(CCCC)c4cc(-c5cc6[b-]7c(c5)c(CCCC)cc5cccc(cc6CCCC)[n+]75)cc1[b-]4[n+]23
In C1CCCCC1
  fluorescence lifetime: 20.5 ns

## Cc1cc(-c2ccc(C(C)(C)C)cc2)cc(C)[o+]1
In CC#N
  fluorescence lifetime: 8 ns
In ClCCl
  fluorescence lifetime: 2.1 ns

## CCCCn1c(-c2ccc(-c3nnc(-c4ccc(-c5nc6c7ccccc7c7ccccc7c6n5CCCC)cc4)o3)cc2)nc2c3ccccc3c3ccccc3c21
In ClCCl
  fluorescence lifetime: 1.64 ns

## CC1(C)c2ccccc2N(c2ccc(-c3cccc(C#N)c3)cc2)c2ccccc21
In N#Cc1ccc2c(c1)c1ccccc1n2-c1cccc(-n2c3ccccc3c3ccccc32)c1
  fluorescence lifetime: 6.53 ns

## Cn1ccc(-c2nc3ccccc3nc2/C=C/N2CCCC2)c1
In C1CCCCC1
  fluorescence lifetime: 1.87 ns
In C1CCOC1
  fluorescence lifetime: 6.61 ns
In CC#N
  fluorescence lifetime: 5.96 ns
In CC(C)=O
  fluorescence lifetime: 6.72 ns
In CCO
  fluorescence lifetime: 0.39 ns
In CO
  fluorescence lifetime: 0.12 ns
In CS(C)=O
  fluorescence lifetime: 5.54 ns
In Cc1ccccc1
  fluorescence lifetime: 5.1 ns
In ClCCl
  fluorescence lifetime: 8.33 ns

## CN(C)c1ccc(-c2c(/C=C3/C=Cc4ccccc4N3Cc3ccccc3)c(=O)c2=O)cc1
In C1CCCCC1
  fluorescence lifetime: 2.19 ns
In Cc1ccccc1
  fluorescence lifetime: 2.13 ns
In ClCCl
  fluorescence lifetime: 0.13 ns

## N#C/C(=C\c1ccc(C#N)cc1)c1nc(-c2ccc(Cl)cc2)cs1
In CC#N
  fluorescence lifetime: 2.85 ns

## CC1(C)c2ccccc2N(c2ccc(-c3nc(-c4ccccc4)cc(-c4ccccc4)n3)cc2)c2ccccc21
In Cc1ccccc1
  fluorescence lifetime: 6.48 ns
In ClCCl
  fluorescence lifetime: 18.2 ns

## N#Cc1c(-n2c3ccccc3c3ccccc32)c(-n2c3ccccc3c3ccccc32)c(C#N)c(-n2c3ccccc3c3ccccc32)c1-n1c2ccccc2c2ccccc21
In Cc1ccccc1
  fluorescence lifetime: 8.8 ns

## COc1cccc2c1-c1ccccc1C2=O
In C1CCCCC1
  fluorescence lifetime: 10.7 ns
In CC#N
  fluorescence lifetime: 1.8 ns

## c1ccc2c(c1)-c1ccccc1C21c2ccccc2-c2c1c1c3ccccc3ccc1c1ccccc21
In Cc1ccccc1
  fluorescence lifetime: 3.14 ns

## CCCCN1/C(=C\c2c(-c3ccc(N(C)C)cc3)c(=O)c2=O)C=Cc2ccccc21
In C1CCCCC1
  fluorescence lifetime: 1.06 ns
In Cc1ccccc1
  fluorescence lifetime: 2.99 ns
In ClCCl
  fluorescence lifetime: 0.6 ns

## CC1(C)c2ccccc2N(c2ccc(-c3nc([C@]45CC6CC(C[C@@H](C6)C4)C5)nc([C@]45C[C@H]6C[C@@H](C[C@H](C6)C4)C5)n3)cc2)c2ccccc21
[1]
  fluorescence lifetime: 14.4 ns

## F[B-]1(F)n2c(cc3c4ccccc4oc32)C(c2ccccc2)=C2C=c3c(oc4ccccc34)=[N+]21
In C1CCCCC1
  fluorescence lifetime: 3.99 ns
In CCOC(C)=O
  fluorescence lifetime: 4.1 ns
In CO
  fluorescence lifetime: 4.02 ns

## Cc1cc(=O)[nH]c(=O)[nH]1
In CC#N
  fluorescence lifetime: 0.0001 ns

## COc1nc(Nc2ccc3c4c(cccc24)C(=O)c2ccccc2-3)nc(OC)n1
In CC#N
  fluorescence lifetime: 9.2 ns
In CC(C)=O
  fluorescence lifetime: 8.5 ns
In CC(C)O
  fluorescence lifetime: 7.7 ns
In CCCCOCCCC
  fluorescence lifetime: 3.7 ns
In CCOC(C)=O
  fluorescence lifetime: 7.3 ns
In CCOCC
  fluorescence lifetime: 4.9 ns
In CO
  fluorescence lifetime: 7.4 ns
In Cc1ccccc1
  fluorescence lifetime: 5.6 ns
In Clc1ccccc1
  fluorescence lifetime: 7.4 ns
In N#Cc1ccccc1
  fluorescence lifetime: 7 ns
In O=C1CCCCC1
  fluorescence lifetime: 7.4 ns

## CNc1ccc2c(c1)-c1ccccc1C2=O
In CC#N
  fluorescence lifetime: 4.3 ns
In c1ccccc1
  fluorescence lifetime: 9.4 ns

## COc1ccc(N(c2ccc(OC)cc2)c2ccc3ccc4c(B(c5c(C)cc(C)cc5C)c5c(C)cc(C)cc5C)ccc5ccc2c3c54)cc1
In C1CCOC1
  fluorescence lifetime: 3.2 ns
In CC(C)=O
  fluorescence lifetime: 0.7 ns
In CCCCCC
  fluorescence lifetime: 6.2 ns
In Cc1ccccc1
  fluorescence lifetime: 8.2 ns
In ClC(Cl)Cl
  fluorescence lifetime: 8.5 ns
In ClCCl
  fluorescence lifetime: 3.9 ns

## O=C(O)c1ccccc1-c1nc(-c2ccccc2)c2ccccn12
In CC#N
  fluorescence lifetime: 5.5 ns

## Cc1cc(-c2ccc(-c3ccccc3)cc2)cc(C)[o+]1
In ClCCl
  fluorescence lifetime: 3.4 ns

## FC(F)(F)C(F)(F)C(F)(F)C1=NC2=C(c3ccccc3)C=C3c4cc(-c5ccccc5)c5nc(C(F)(F)C(F)(F)C(F)(F)F)nc6c(-c7ccccc7)cc(c4c56)=C4C=C(c5ccccc5)C(=N1)C2C34 (centres undefined)
In C1CCOC1
  fluorescence lifetime: 3.2 ns

## O=c1cc[nH]c(=O)[nH]1
In CC#N
  fluorescence lifetime: 0.0001 ns

## CN(C)c1ccc2c(-c3cc(C(=O)[O-])ccc3C(=O)[O-])c3ccc(=[N+](C)C)cc-3oc2c1
In CCO
  fluorescence lifetime: 3.3 ns
In O
  fluorescence lifetime: 2.36 ns

## CN(C)c1ccc2nc3c(cc2c1)c(-c1ccccc1)nn3-c1ccccc1
In C1CCCCC1
  fluorescence lifetime: 16.1 ns
In C1CCOC1
  fluorescence lifetime: 21 ns
In CC#N
  fluorescence lifetime: 24.5 ns
In CC(C)=O
  fluorescence lifetime: 23.4 ns
In CCCCCl
  fluorescence lifetime: 20.1 ns
In CCCCOCCCC
  fluorescence lifetime: 18.4 ns
In CN(C)C=O
  fluorescence lifetime: 22.3 ns

## Cn1nc(-c2ccccc2)c2nc3cc(F)ccc3nc21
In C1CCCCC1
  fluorescence lifetime: 23 ns
In C1CCOC1
  fluorescence lifetime: 23 ns
In CC#N
  fluorescence lifetime: 10.1 ns

## CN(C)C(=O)c1ccc(-c2nc3ccc(N(C)C)cc3s2)cc1
In C1CCCCC1
  fluorescence lifetime: 2 ns

## CC(C)CCCN1c2ccccc2CCc2ccccc21
In CC#N
  fluorescence lifetime: 0.89 ns
In CO
  fluorescence lifetime: 0.86 ns

## CCCCCCCCCCCCOc1cc2c3c(ccc4c5c(N6CCOCC6)cc6c7c(ccc(c1c34)c75)C(=O)N(C1CCCCC1)C6=O)C(=O)N(C1CCCCC1)C2=O
In ClC(Cl)Cl
  fluorescence lifetime: 3.4 ns

## CC(=O)c1ccc(-c2cc(C)[o+]c(C)c2)cc1
In ClCCl
  fluorescence lifetime: 2 ns

## COC(=O)CC1(C(=O)O)Oc2c(c(C(C)=O)c3c(c2C(C)=O)OCO3)O1
In CC#N
  fluorescence lifetime: 20 ns

## COc1ccc(C2=C(C)C3=C(c4c(-c5ccccn5)nc5ccccn45)c4c(C)cc(C)n4[B-](F)(F)[N+]3=C2C)cc1
In ClCCl
  fluorescence lifetime: 2.2 ns

## CCN(CC)c1ccc2c(c1)oc(=O)c1cc3cnn(-c4ccccc4)c3nc12
In ClCCl
  fluorescence lifetime: 16.9 ns

## CCCCCCN1C(=O)c2cccc3cc(/N=C\c4c[nH]c5c4ccc4ccccc45)cc(c23)C1=O
In ClC(Cl)Cl
  fluorescence lifetime: 11.6 ns

## Cc1c(C)c(N2c3ccccc3Oc3ccccc32)c(C)c(C)c1B(c1c(C)c(C)c(N2c3ccccc3Oc3ccccc32)c(C)c1C)c1c(C)c(C)c(N2c3ccccc3Oc3ccccc32)c(C)c1C
[1]
  fluorescence lifetime: 1.3 ns

## O=C1/C(=C2\Sc3ccccc3C2=O)Sc2ccccc21
In C1COCCO1
  fluorescence lifetime: 12.4 ns
In CN(C)C=O
  fluorescence lifetime: 6.9 ns
In CO
  fluorescence lifetime: 0.68 ns
In CS(C)=O
  fluorescence lifetime: 0.17 ns
In c1ccccc1
  fluorescence lifetime: 12.2 ns

## COc1cc(OC)c2c(c1)C(=O)c1ccc(OC)cc1-2
In C1CCCCC1
  fluorescence lifetime: 4.4 ns
In CC#N
  fluorescence lifetime: 1.2 ns
